Measurements from patent US9550782B2, “Compounds and methods for treating diabetes” (Medivation Technologies, Inc., priority 2011, dated 2017).
Where “and” joins values, the source holds several entries; their conditions need not be identical. Identical values can stand only once. Like-named read-outs stand apart in the source and are kept apart here. Each block holds one molecule with its values, some of them ahead of it.

What was measured:
[1] = target: T1, rat adrenergic α1B receptor (Rattus norvegicus, UniProt P15823); experiment: Radioligand binding, adrenergic α1B ([3H]Prazosin); design: species or system Wistar Rat
T1 construct: rat adrenergic α1B receptor obtained from Wistar Rat liver; from tissue; host or cells: Wistar rat liver
T1 sequence (P15823 1-515): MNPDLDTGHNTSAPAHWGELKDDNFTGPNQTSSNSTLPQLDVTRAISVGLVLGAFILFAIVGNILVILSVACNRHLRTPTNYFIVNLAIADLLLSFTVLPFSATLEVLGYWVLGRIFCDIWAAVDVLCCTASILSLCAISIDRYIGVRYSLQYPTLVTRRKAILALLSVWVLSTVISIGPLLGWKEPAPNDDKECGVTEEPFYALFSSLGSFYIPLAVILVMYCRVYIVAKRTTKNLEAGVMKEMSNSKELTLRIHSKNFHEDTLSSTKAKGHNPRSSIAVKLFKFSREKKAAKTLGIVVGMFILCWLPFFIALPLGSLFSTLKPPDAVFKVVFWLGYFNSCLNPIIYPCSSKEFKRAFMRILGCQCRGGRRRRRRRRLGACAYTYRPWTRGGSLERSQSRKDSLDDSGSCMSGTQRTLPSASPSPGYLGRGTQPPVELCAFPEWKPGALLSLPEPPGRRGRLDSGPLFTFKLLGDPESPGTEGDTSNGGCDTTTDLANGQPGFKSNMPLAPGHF
Procedure: To evaluate in radioligand binding assays the activity of compounds of the invention, rat adrenergic α1B receptor obtained from Wistar Rat liver (Garcia-S'ainz, J. et al, Biochem. Biophys. Res. Commun. 186:760, 1992; Michel, A. et al, Br. J. Pharmacol. 98:883, 1989) in a modified Tris-HCl buffer (50 mM Tris-HCl buffer, pH 7.4, 0.5 mM EDTA) was used. Compounds of the invention were incubated with 0.25 nM [^3H]Prazosin for 60 min at 25° C. Non-specific binding was estimated in the presence of 10 μM phentolamine. Receptor proteins were filtered and washed, the filters were then counted to determine [^3H]Prazosin specifically bound. […] Compounds of the invention were tested in this biochemical assay and percent inhibition of specific binding was determined. Biochemical assay results are presented as the percent inhibition of specific binding in Table B1.

[2] = target: T2, human recombinant adrenergic α2A receptor (Homo sapiens, UniProt P08913); experiment: Radioligand binding, adrenergic α2A ([3H]MK-912); settings: [3H]MK-912
T2 construct: expressed in transfected cells; host or cells: insect Sf9 cells
T2 sequence (P08913 1-465): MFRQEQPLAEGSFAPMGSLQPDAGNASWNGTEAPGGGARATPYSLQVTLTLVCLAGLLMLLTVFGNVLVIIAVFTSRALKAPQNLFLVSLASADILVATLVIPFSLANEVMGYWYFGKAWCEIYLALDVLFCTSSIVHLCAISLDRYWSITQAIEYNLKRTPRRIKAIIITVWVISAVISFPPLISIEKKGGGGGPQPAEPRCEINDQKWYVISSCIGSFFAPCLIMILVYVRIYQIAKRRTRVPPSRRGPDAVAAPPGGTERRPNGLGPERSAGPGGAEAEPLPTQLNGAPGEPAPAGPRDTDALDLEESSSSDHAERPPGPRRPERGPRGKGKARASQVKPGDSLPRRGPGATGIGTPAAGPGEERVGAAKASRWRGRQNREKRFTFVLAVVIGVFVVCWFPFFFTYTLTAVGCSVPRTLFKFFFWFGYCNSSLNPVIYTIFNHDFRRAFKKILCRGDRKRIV
Procedure: To evaluate in radioligand binding assays the activity of compounds of the invention, human recombinant adrenergic α2A receptor expressed in insect Sf9 cells (Uhlen, S. et al, J. Pharmacol. Exp. Ther. 271:1558, 1994) in a modified Tris-HCl buffer (50 mM Tris-HCl, pH 7.4, 12.5 mM MgCl2, 2 mM EDTA) was used. Compounds of invention were incubated with 1 nM [^3H]MK-912 for 60 min at 25° C. MK912 is (2S-trans)-1,3,4,5′,6,6′,7,12b-octahydro-1′,3′-dimethyl-spiro[2H-benzofuro[2,3-a]quinolizine-2,4′(1′H)-pyrimidin]-2′(3′H)-one hydrochloride. Non-specific binding was estimated in the presence of 10 μM WB-4101 (2-(2,6-Dimethoxyphenoxyethyl)aminomethyl-1,4-benzodioxane hydrochloride). Receptor proteins were filtered and washed, the filters were then counted to determine [^3H]MK-912 specifically bound. […] Compounds of the invention were tested in this biochemical assay and percent inhibition of specific binding was determined. Biochemical assay results are presented as the percent inhibition of specific binding in Table B1.

[3] = target: T3, human recombinant adrenergic α2B receptor (Homo sapiens, UniProt P18089); experiment: Radioligand binding, adrenergic α2B ([3H]Rauwolscine)
T3 construct: expressed in transfected cells; host or cells: CHO-K1
T3 sequence (P18089 1-450): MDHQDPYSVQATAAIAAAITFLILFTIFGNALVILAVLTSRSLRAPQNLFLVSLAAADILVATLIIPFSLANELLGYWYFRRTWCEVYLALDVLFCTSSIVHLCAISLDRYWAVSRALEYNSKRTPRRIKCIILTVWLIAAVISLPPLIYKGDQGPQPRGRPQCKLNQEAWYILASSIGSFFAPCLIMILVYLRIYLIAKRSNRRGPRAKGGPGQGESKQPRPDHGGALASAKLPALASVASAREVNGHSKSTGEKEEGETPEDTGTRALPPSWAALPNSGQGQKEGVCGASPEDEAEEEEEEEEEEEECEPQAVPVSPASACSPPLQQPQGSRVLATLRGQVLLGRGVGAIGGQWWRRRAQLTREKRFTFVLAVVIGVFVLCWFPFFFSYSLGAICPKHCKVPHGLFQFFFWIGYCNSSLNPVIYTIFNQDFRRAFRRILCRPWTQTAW
Procedure: To evaluate in radioligand binding assays the activity of compounds of the invention, human recombinant adrenergic α2B receptor expressed in Chinese hamster ovary (CHO) K1 cells (Uhlen, S. et al, Eur. J. Pharmacol. 343(1):93, 1998) in a modified Tris-HCl buffer (50 mM Tris-HCl, pH 7.4, 12.5 mM MgCl2, 1 mM EDTA, 0.2% BSA) was used. Compounds of the invention were incubated with 2.5 nM [3H]Rauwolscine for 60 min at 25° C. Non-specific binding was estimated in the presence of 10 μM Prazosin. Receptor proteins were filtered and washed, the filters were then counted to determine [3H]Rauwolscine specifically bound. […] Compounds of the invention were tested in this biochemical assay and percent inhibition of specific binding was determined. Biochemical assay results are presented as the percent inhibition of specific binding in Table B1.

[4] = read-out: Percentage inhibition of ligand binding, Adrenergic α1B (0.1 μM), compound at 0.1 μM, repeat datapoints each shown
[5] = compound at 0.1 μM, repeat datapoints each shown, 0.1 µM
[6] = 0.1 μM compound, read-out: Percentage inhibition of ligand binding, Adrenergic α2A
[7] = read-out: Percentage inhibition of ligand binding, Adrenergic α2A (0.1 μM), compound at 0.1 μM, repeat datapoints each shown

Compound: CCC(O)(Cn1c2c(c3cc(C)ccc31)CN(C)CC2)c1ccc(F)cc1 (single isomer, unassigned) [34a]
- Percentage inhibition of ligand binding, Adrenergic α2A (0.1 μM) [2, 5]: 29%
- Percentage inhibition of ligand binding, Adrenergic α1B (0.1 μM) [1, 5]: 11%

Compound: Cc1ccc2c(c1)c1c(n2CC(O)c2ccncc2)CCN2CCCC12 (single isomer, unassigned) [129a]
- Percentage inhibition of ligand binding, Adrenergic α2A ([2]; 0.1 μM compound, 0.1 µM): 46%
- Percentage inhibition of ligand binding, Adrenergic α1B ([1]; 0.1 μM compound, 0.1 µM): 73%

Compound: Cc1ccc2c(c1)c1c(n2CC(O)c2ccncc2)CCN2CCCC12 (single isomer, unassigned) [129b]
- Percentage inhibition of ligand binding, Adrenergic α2A ([2]; 0.1 μM compound, 0.1 µM): 55%
- Percentage inhibition of ligand binding, Adrenergic α1B ([1]; 0.1 μM compound, 0.1 µM): 69%

Compound: Cc1ccc2c(c1)c1c(n2CC(O)c2ccncc2)CCN2CCCC12 (single isomer, unassigned) [129c]
- inhibition at 0.03 µM ([2]; 0.03 μM compound, read-out: Percentage inhibition of ligand binding, Adrenergic α2A): 14%
- inhibition at 0.1 µM [2, 6]: 29%

Compound: Cc1ccc2c(c1)c1c(n2CC(OC(=O)C(C)(C)C)c2ccncc2)CCN(C)C1 (single isomer, unassigned) [130b]
- Percentage inhibition of ligand binding, Adrenergic α2A ([2]; 0.03 μM compound, 0.03 µM): 13%
- Percentage inhibition of ligand binding, Adrenergic α2A ([2]; 0.1 μM compound, 0.1 µM): 31%
- Percentage inhibition of ligand binding, Adrenergic α1B ([1]; 0.03 μM compound, 0.03 µM): 2%
- Percentage inhibition of ligand binding, Adrenergic α1B ([1]; 0.1 μM compound, 0.1 µM): 8% and 11%

Compound: CN1CCc2c(c3cc(Cl)ccc3n2CC(C)(O)c2ccc(C(F)(F)F)nc2)C1 (single isomer, unassigned) [143a]
- Percentage inhibition of ligand binding, Adrenergic α1B ([1]; 0.1 μM compound, 0.1 µM): 43%

Compound: Cc1ccc2c(c1)c1c(n2CC(N)c2ccncc2)CC2CCC1N2C (single isomer, unassigned) [155a]
- Percentage inhibition of ligand binding, Adrenergic α2A ([2]; 0.1 μM compound, 0.1 µM): −1%

Compound: CN1CCc2c(n(CC(O)c3ccc(F)c(F)c3)c3ccc(Cl)cc23)CC1 (single isomer, unassigned) [339a]
- Percentage inhibition of ligand binding, Adrenergic α2A ([2]; compound at 0.1 μM, 0.1 µM): 37%
- Percentage inhibition of ligand binding, Adrenergic α1B ([1]; compound at 0.1 μM): 13%

Compound: CN1CCc2c(n(CC(O)c3ccc(F)c(F)c3)c3ccc(Cl)cc23)CC1 (single isomer, unassigned) [339b]
- Percentage inhibition of ligand binding, Adrenergic α2A ([2]; compound at 0.1 μM, 0.1 µM): 64%

Compound: OCCN1CCc2c(c3cc(Cl)ccc3n2CC(O)c2ccncc2)C1 (single isomer, unassigned) [II-93b]
- Percentage inhibition of ligand binding, Adrenergic α2A ([2]; compound at 0.1 μM, 0.1 µM): 4%

Compound: CC(O)(Cn1c2c(c3cc(Cl)ccc31)CN(C1CCC1)CC2)c1cccnc1 (single isomer, unassigned) [II-118a]
- Percentage inhibition of ligand binding, Adrenergic α2A (0.1 μM) [2, 5]: 3%

Compound: Cc1ccc2c(c1)c1c(n2CC(C)(O)c2cccnc2)C(O)CN(C)C1 (single isomer, unassigned) [II-151a]
- Percentage inhibition of ligand binding, Adrenergic α1B (0.1 μM) [1, 5]: 11%

Compound: CC(O)(Cn1c2c(c3cc(Cl)cnc31)C1CCCN1CC2)c1cccnc1 (single isomer, unassigned) [IV-210a]
- Percentage inhibition of ligand binding, Adrenergic α1B (0.03 μM) ([1]; compound at 0.03 μM, repeat datapoints each shown): 43%

Compound: Cc1ccc2c(c1)c1c(n2CC(O)c2ccc(C#N)cc2)CCN(C)C1 (stereo not drawn) [142b]
- Percentage inhibition of ligand binding, Adrenergic α2A ([2]; 0.1 μM compound): 63%

Compound: C/C(=C\n1c2c(c3cc(C)ccc31)C1CCCN1CC2)c1ccc(C)nc1 (stereo not drawn) [193a, 10-methyl-7-(2-(6-methylpyridin-3-yl)prop-1-enyl)-2,3,5,6,7,11c-hexahydro-1H-indolizino[7,8-b]indole]
- inhibition at 0.1 µM [2, 6]: 85%
- inhibition at 0.1 µM ([1]; 0.1 μM compound, read-out: Percentage inhibition of ligand binding, Adrenergic α1B): 89%

Compound: Cc1ccc2c(c1)c1c(n2CC(O)c2cn[nH]c2)CCN(C)C1 (stereo not drawn) [II-106a]
- Percentage inhibition of ligand binding, Adrenergic α1B ([1]; compound at 0.1 μM): 25%

Compound: CN1CCc2c(c3cc(Cl)ccc3n2CC(O)c2cccnc2)C1 (stereo not drawn) [compound 7]
- inhibition at 0.1 µM [2, 7]: 16%

Compound: Cc1cnc2c(c1)c1c(n2CCc2ccc(C)nc2)CCN2CCCC12 (stereo not drawn) [compound 74, 10-methyl-7-(2-(6-methylpyridin-3-yl)ethyl)-2,3,5,6,7,1c-hexahydro-1H-pyrido[3′,2′:4,5]pyrrolo[2,3-g]indolizine]
- inhibition at 0.1 µM [1, 4]: 81%

The remaining lines, values ahead:

- inhibition at 0.1 µM [1, 4]: 15%
Compound: Cc1ccc2c(c1)c1c(n2CC(N=[N+]=[N-])c2ccncc2)CCN(C)C1 (racemic) [V-1, 5-(2-azido-2-(pyridin-4-yl)ethyl)-2,3,4,5-tetrahydro-2,8-dimethyl-1H-pyrido[4,3-b]indole]

- Percentage inhibition of ligand binding, Adrenergic α2B ([3]; 0.03 μM compound): 43%
- Percentage inhibition of ligand binding, Adrenergic α2B ([3]; 0.1 μM compound): 74%
Compound: Cc1ccc2c(c1)c1c(n2C(C)C(O)c2ccncc2)CCN(C)C1 (single isomer, unassigned) [127a]

- Percentage inhibition of ligand binding, Adrenergic α2A ([2]; 0.1 μM compound, 0.1 µM): 5%
- Percentage inhibition of ligand binding, Adrenergic α1B ([1]; 0.1 μM compound, 0.1 µM): 7%
Compound: Cc1ccc2c(c1)c1c(n2CC(c2ccncc2)N(C)C)CCN(C)C1 (single isomer, unassigned) [150b]

- Percentage inhibition of ligand binding, Adrenergic α2A ([2]; 0.1 μM compound): 17%
Compound: Cc1ccc2c(c1)c1c(n2CC(c2ccncc2)N2CCCC2)CCN(C)C1 (single isomer, unassigned) [152a]

- Percentage inhibition of ligand binding, Adrenergic α1B ([1]; 0.1 μM compound): 7%
Compound: Cc1ccc2c(c1)c1c(n2CC(c2ccncc2)N2CCCC2)CCN(C)C1 (single isomer, unassigned) [152b]

- Percentage inhibition of ligand binding, Adrenergic α1B (0.1 μM) [1, 5]: 57%
Compound: Cc1ccc2c(c1)c1c(n2CC(O)c2ccc(F)cc2)CCN(C)C1 (stereo not drawn) [30a]

- Percentage inhibition of ligand binding, Adrenergic α2A ([2]; compound at 0.1 μM): 12%
- Percentage inhibition of ligand binding, Adrenergic α1B ([1]; compound at 0.1 μM): 33%
Compound: Cc1ccc2c(c1)c1c(n2C(C)C(O)c2ccncc2)CCN(C)C1 (stereo not drawn) [II-98a]

- inhibition at 0.1 µM [2, 7]: 63%
- inhibition at 0.1 µM [1, 4]: 86%
Compound: Cc1ccc2c(c1)c1c(n2CC(O)c2ccc(F)cc2)CCN(C)C1 (stereo not drawn) [compound 30]
